The supplement of paper PMC5908809

Key:
[1] = test system: normal NK cells expanded with K562-aAPC; experiment: drug sensitivity score (DSS) (DSS units); higher = more sensitive; extreme values may be limits of the assay; details: 72 h; IL-2 2.5 ng/mL
Protocol: (§1)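 Drug sensitivity and resistance testing on K562-aAPC-expanded normal NK cells: 5 concentrations (10-fold steps over a 10,000-fold range), 72 h at 37 °C, viability by CellTiter-Glo normalised to DMSO and benzethonium chloride controls; DSS from the fitted curve.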

[2] = test system: NK-YS (IL-2 2.5 ng/mL); experiment: as above; details: 72 h
[3] = test system: KAI3 (IL-2 2.5 ng/mL); experiment: as above; details: 72 h
[4] = test system: KHYG-1 (IL-2 2.5 ng/mL); experiment: as above; details: 72 h
[5] = test system: normal primary NK cells, pool 1 (3 donors) (IL-2 2.5 ng/mL); experiment: as above; details: 72 h
[6] = test system: normal primary NK cells, pool 1 (3 donors), resting (IL-2 0 ng/mL); experiment: as above; details: 72 h
[7] = test system: NK-92 (IL-2 2.5 ng/mL); experiment: as above; details: 72 h
[8] = test system: IMC-1 (IL-2 20 ng/mL); experiment: as above; details: 72 h
[9] = test system: DERL-7 (IL-2 2.5 ng/mL); experiment: as above; details: 72 h
[10] = test system: normal primary NK cells, pool 3 (3 donors) (IL-2 2.5 ng/mL); experiment: as above; details: 72 h
[11] = test system: SNK-6 (IL-2 2.5 ng/mL); experiment: as above; details: 72 h
[12] = test system: normal primary NK cells, pool 2 (3 donors) (IL-2 2.5 ng/mL); experiment: as above; details: 72 h
[13] = test system: NKL (IL-2 2.5 ng/mL); experiment: as above; details: 72 h
[14] = test system: YT (IL-2 2.5 ng/mL); experiment: as above; details: 72 h
[15] = test system: normal NK cells expanded with K562-aAPC; experiment: percent inhibition of viability; higher = more inhibition; details: 72 h, IL-2 2.5 ng/mL
Protocol: as §1

[16] = test system: NK-YS (IL-2 2.5 ng/mL); experiment: as above; details: 72 h
[17] = test system: KAI3 (IL-2 2.5 ng/mL); experiment: as above; details: 72 h
[18] = test system: KHYG-1 (IL-2 2.5 ng/mL); experiment: as above; details: 72 h
[19] = test system: normal primary NK cells, pool 1 (3 donors) (IL-2 2.5 ng/mL); experiment: as above; details: 72 h
[20] = test system: normal primary NK cells, pool 1 (3 donors), resting (IL-2 0 ng/mL); experiment: as above; details: 72 h
[21] = test system: NK-92 (IL-2 2.5 ng/mL); experiment: as above; details: 72 h
[22] = test system: IMC-1 (IL-2 20 ng/mL); experiment: as above; details: 72 h
[23] = test system: DERL-7 (IL-2 2.5 ng/mL); experiment: as above; details: 72 h
[24] = test system: normal primary NK cells, pool 3 (3 donors) (IL-2 2.5 ng/mL); experiment: as above; details: 72 h
[25] = test system: SNK-6 (IL-2 2.5 ng/mL); experiment: as above; details: 72 h
[26] = test system: normal primary NK cells, pool 2 (3 donors) (IL-2 2.5 ng/mL); experiment: as above; details: 72 h
[27] = test system: NKL (IL-2 2.5 ng/mL); experiment: as above; details: 72 h
[28] = test system: YT (IL-2 2.5 ng/mL); experiment: as above; details: 72 h

CNC(=O)c1ccc2cc([C@@]3(O)CCn4cncc43)ccc2c1 [Orteronel] (max concentration tested 10000 nM)
Details | drug sensitivity score
[1] | 0
[2] | 0
[3] | 0
[4] | 0
[5] | 0
[6] | 2.88
[7] | 0
[8] | 0
[9] | 0
[10] | 0
[11] | 0
[12] | 0
[13] | 0
[14] | 0

percent inhibition of viability [%]
Details | 1 nM | 10 nM | 100 nM | 1000 nM | 10000 nM
[15] | -5.71 | -7.96 | -3.03 | -3.58 | -6.05
[16] | -3.4 | -3.35 | -1.88 | -0.21 | -5.45
[17] | -7.13 | -0.59 | -2.47 | -4.32 | -11.3
[18] | -5.73 | -2.14 | -3.55 | 0.58 | -8.03
[19] | -3.93 | -7.55 | -2.24 | 5.97 | 4.41
[20] | -13 | -1.84 | 15.9 | 8.47 | 14.4
[21] | -11.2 | 0.34 | -4.73 | 4.66 | -21.7
[22] | -2.16 | 2.99 | -1.56 | 2.85 | -4.82
[23] | -6.34 | 0.71 | -1.69 | -1 | -1.19
[24] | -9.86 | -10.5 | -4.17 | -8.67 | -0.69
[25] | 12.8 | 29.5 | -7.71 | 18.8 | -9.24
[26] | -7.25 | -8.3 | -5.11 | -0.18 | -0.97
[27] | -5 | -13 | -12.1 | 0.4 | -4.85
[28] | -1.09 | -0.82 | -3 | 6.56 | -4.8

N[C@@H](Cc1ccc(N(CCCl)CCCl)cc1)C(=O)O [Melphalan] (max concentration tested 12500 nM)
Details | drug sensitivity score
[1] | 0
[8] | 0
[10] | 0
[12] | 0

percent inhibition of viability [%]
Details | 1.25 nM | 12.5 nM | 125 nM | 1250 nM | 12500 nM
[15] | -1.69 | -2.91 | -0.58 | 0.8 | 6.31
[22] | -3.81 | -2.31 | -1.39 | 0.63 | 0.47
[24] | -7.72 | -2.35 | -4.09 | 0.34 | 3.45
[26] | -5.43 | -5.03 | -6.41 | 7.99 | 1.1

CC(C)NC[C@@H](C(=O)N1CCN(c2ncnc3c2[C@H](C)C[C@H]3O)CC1)c1ccc(Cl)cc1 [Ipatasertib] (max concentration tested 10000 nM)
Details | drug sensitivity score
[1] | 3.79
[8] | 0
[10] | 2.08
[12] | 3.09

percent inhibition of viability [%]
Details | 1 nM | 10 nM | 100 nM | 1000 nM | 10000 nM
[15] | 4.44 | 5.94 | 6.06 | 17.9 | 39.6
[22] | 0.54 | 2.26 | 1.36 | 0.96 | 9.26
[24] | 5.55 | 1.78 | 8.02 | 9.98 | 29.5
[26] | -8.24 | -4.37 | 0.07 | 8.84 | 36

CN(C)C(=N)NC(=N)N [Metformin] (max concentration tested 100000 nM)
Details | drug sensitivity score
[1] | 0
[8] | 0
[10] | 0
[12] | 1.13

percent inhibition of viability [%]
Details | 10 nM | 100 nM | 1000 nM | 10000 nM | 100000 nM
[15] | -6.08 | -6.07 | -1.23 | 6.39 | 2.64
[22] | -3.89 | -0.13 | -3.1 | -1.36 | 5.51
[24] | -3.35 | 0.87 | 5.02 | 0.46 | 8.34
[26] | -3.45 | 0.32 | 10.6 | 8.75 | 12.4

Cn1cc(C[C@@H](N)C(=O)O)c2ccccc21 [1-methyl-D-tryptophan] (max concentration tested 5000 nM)
Details | drug sensitivity score
[1] | 0
[8] | 0
[10] | 0
[12] | 0

percent inhibition of viability [%]
Details | 0.5 nM | 5 nM | 50 nM | 500 nM | 5000 nM
[15] | -12.1 | -7.01 | -8.73 | 0.95 | 6.01
[22] | -6.61 | -9.96 | -5.67 | -2.82 | 0.08
[24] | -7.11 | -12.2 | 0.9 | 5.49 | 5.66
[26] | -6.45 | -5.59 | -1.81 | 4.04 | 6.29
